Source: patent US11702422B2, “Imidazopyridazines as modulators of IL-17” (Janssen Pharmaceutica NV, priority 2020, dated 2023)

Tests used:
[1] = biological target: IL-17A(FLAG-Tagged): IL-17RA(His-Tagged) (Homo sapiens, UniProt Q16552, K93Q); assay: IL-17A(FLAG-Tagged): IL-17RA(His-Tagged) Binding Disruption Eu-HTRF Assay; settings: IL-17A/IL-17RA binding disruption, simple average if tested more than once
Procedure, shortened: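 IC50 comes from a one-site competition fit of the HTRF 665/620 nm ratio. Compound dilutions (2-fold, 22 points) were held 1 h rt with FLAG-tagged IL-17A dimer, then His-tagged IL-17RA plus Eu-cryptate anti-FLAG and D2 anti-His antibodies were added for 2 h rt.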

[2] = test system: IL-17A-induced G-CSF production in human normal keratinocyte (NHK); assay: NHK Assay: IL-17A-induced G-CSF production in human normal keratinocytes; assay type: cell-based; settings: Homo sapiens, Keratinocyte, 24 h, adult normal human keratinocytes, IL-17A 5 ng/mL, simple average if tested more than once
Procedure, shortened: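 Adult normal human keratinocytes were seeded at 3000-4000 cells/well. Recombinant human IL-17A was pre-incubated 1 h at rt with titrated compound, then added to cells (final 5 ng/mL IL-17A, 0.2% DMSO, 5% FBS) for 24 h at 37° C. Supernatant G-CSF was measured by HTRF against a standard curve to give IC50.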

UniProt Q16552, sequence (Q16552 with tags, fused parts or gaps K93Q): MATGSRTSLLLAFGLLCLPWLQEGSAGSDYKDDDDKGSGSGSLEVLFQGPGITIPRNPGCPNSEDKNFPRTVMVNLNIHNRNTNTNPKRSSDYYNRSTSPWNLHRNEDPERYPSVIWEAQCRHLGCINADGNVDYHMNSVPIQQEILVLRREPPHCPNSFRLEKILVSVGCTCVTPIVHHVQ

SMILES | IC50 [1] [nM] | IC50 [2] [nM]
CC(C)c1cc(C(=O)N[C@H](c2cn3ncc([C@H](NC(=O)CCC(F)(F)F)C4CC4)cc3n2)C2CCC(F)(F)CC2)ncn1 [Example 162, N—((S)-(7-((R)-Cyclopropyl(4,4,4-trifluorobutanamido)methyl)imidazo[1,2-b]pyridazin-2-yl)(4,4-difluorocyclohexyl)methyl)-6-isopropylpyrimidine-4-carboxamide] | 150 | 940
O=C(CCC(F)(F)F)N[C@@H](c1cnn2cc([C@@H](NC(=O)c3cccc(C4CC4)c3)C3CCC(F)(F)CC3)nc2c1)C1CC1 [Example 166, 3-Cyclopropyl-N—((S)-(7-((R)-cyclopropyl(4,4,4-trifluorobutanamido)methyl)imidazo[1,2-b]pyridazin-2-yl)(4,4-difluorocyclohexyl)methyl)benzamide] | 57 | 130
O=C(CCC(F)(F)F)N[C@@H](c1cnn2cc([C@@H](NC(=O)c3cccc(OC(F)F)c3)C3CCC(F)(F)CC3)nc2c1)C1CC1 [Example 167, N—((S)-(7-((R)-Cyclopropyl(4,4,4-trifluorobutanamido)methyl)imidazo[1,2-b]pyridazin-2-yl)(4,4-difluorocyclohexyl)methyl)-3-(difluoromethoxy)benzamide] | 37 | 160
O=C(CCC(F)(F)F)N[C@@H](c1cnn2cc([C@@H](NC(=O)c3ccnc(OC4CC4)c3)C3CCC(F)(F)CC3)nc2c1)C1CC1 [Example 172, 2-Cyclopropoxy-N—((S)-(7-((R)-cyclopropyl(4,4,4-trifluorobutanamido)methyl)imidazo[1,2-b]pyridazin-2-yl)(4,4-difluorocyclohexyl)methyl)isonicotinamide] | 44 | 320
O=C(CCC(F)(F)F)N[C@@H](c1cnn2cc([C@@H](NC(=O)c3cccc(F)c3)C3CCC(F)(F)CC3)nc2c1)C1CC1 [Example 173, N—((S)-(7-((R)-Cyclopropyl(4,4,4-trifluorobutanamido)methyl)imidazo[1,2-b]pyridazin-2-yl)(4,4-difluorocyclohexyl)methyl)-3-fluorobenzamide] | 60 | 340
CC(C)Oc1cc(C(=O)N[C@H](c2cn3ncc([C@H](NC(=O)CCC(F)(F)F)C4CC4)cc3n2)C2CCC(F)(F)CC2)ccn1 [Example 175, N—((S)-(7-((R)-Cyclopropyl(4,4,4-trifluorobutanamido)methyl)imidazo[1,2-b]pyridazin-2-yl)(4,4-difluorocyclohexyl)methyl)-2-isopropoxyisonicotinamide] | 80 | 400
O=C(CCC(F)(F)F)N[C@@H](c1cnn2cc([C@@H](NC(=O)c3cncc(C(F)(F)F)c3)C3CCC(F)(F)CC3)nc2c1)C1CC1 [Example 178, N—((S)-(7-((R)-Cyclopropyl(4,4,4-trifluorobutanamido)methyl)imidazo[1,2-b]pyridazin-2-yl)(4,4-difluorocyclohexyl)methyl)-5-(trifluoromethyl)nicotinamide] | 67 | 450

Continued, in another order:

IC50 [1] [nM] | SMILES | IC50 [2] [nM]
120 | O=C(CCC(F)(F)F)N[C@@H](c1cnn2cc([C@@H](NC(=O)c3cccc(N4CCCC4=O)c3)C3CCC(F)(F)CC3)nc2c1)C1CC1 [Example 163, N—((S)-(7-((R)-Cyclopropyl(4,4,4-trifluorobutanamido)methyl)imidazo[1,2-b]pyridazin-2-yl)(4,4-difluorocyclohexyl)methyl)-3-(2-oxopyrrolidin-1-yl)benzamide] | 100
55 | O=C(CCC(F)(F)F)N[C@@H](c1cnn2cc([C@@H](NC(=O)c3cccc(C4CC4(F)F)c3)C3CCC(F)(F)CC3)nc2c1)C1CC1 (stereo partly drawn) [Example 164, N—((S)-(7-((R)-Cyclopropyl(4,4,4-trifluorobutanamido)methyl)imidazo[1,2-b]pyridazin-2-yl)(4,4-difluorocyclohexyl)methyl)-3-(2,2-difluorocyclopropyl)benzamide] | 130
52 | O=C(CCC(F)(F)F)N[C@@H](c1cnn2cc([C@@H](NC(=O)c3cc(F)cc(OC(F)F)c3)C3CCC(F)(F)CC3)nc2c1)C1CC1 [Example 165, N—((S)-(7-((R)-Cyclopropyl(4,4,4-trifluorobutanamido)methyl)imidazo[1,2-b]pyridazin-2-yl)(4,4-difluorocyclohexyl)methyl)-3-(difluoromethoxy)-5-fluorobenzamide] | 130
38 | O=C(CCC(F)(F)F)N[C@@H](c1cnn2cc([C@@H](NC(=O)c3cccc(OCC(F)F)c3)C3CCC(F)(F)CC3)nc2c1)C1CC1 [Example 168, N—((S)-(7-((R)-Cyclopropyl(4,4,4-trifluorobutanamido)methyl)imidazo[1,2-b]pyridazin-2-yl)(4,4-difluorocyclohexyl)methyl)-3-(2,2-difluoroethoxy)benzamide] | 190
37 | O=C(CCC(F)(F)F)N[C@@H](c1cnn2cc([C@@H](NC(=O)c3cc(OC(F)F)ccc3F)C3CCC(F)(F)CC3)nc2c1)C1CC1 [Example 169, N—((S)-(7-((R)-Cyclopropyl(4,4,4-trifluorobutanamido)methyl)imidazo[1,2-b]pyridazin-2-yl)(4,4-difluorocyclohexyl)methyl)-5-(difluoromethoxy)-2-fluorobenzamide] | 200
41 | O=C(CCC(F)(F)F)N[C@@H](c1cnn2cc([C@@H](NC(=O)c3cccc(C(F)F)c3)C3CCC(F)(F)CC3)nc2c1)C1CC1 [Example 170, N—((S)-(7-((R)-Cyclopropyl(4,4,4-trifluorobutanamido)methyl)imidazo[1,2-b]pyridazin-2-yl)(4,4-difluorocyclohexyl)methyl)-3-(difluoromethyl)benzamide] | 220
48 | O=C(CCC(F)(F)F)N[C@@H](c1cnn2cc([C@@H](NC(=O)c3ccnc(OCC(F)(F)F)c3)C3CCC(F)(F)CC3)nc2c1)C1CC1 [Example 171, N—((S)-(7-((R)-Cyclopropyl(4,4,4-trifluorobutanamido)methyl)imidazo[1,2-b]pyridazin-2-yl)(4,4-difluorocyclohexyl)methyl)-2-(2,2,2-trifluoroethoxy)isonicotinamide] | 320
80 | O=C(CCC(F)(F)F)N[C@@H](c1cnn2cc([C@@H](NC(=O)c3cccc(OCC(F)(F)F)c3)C3CCC(F)(F)CC3)nc2c1)C1CC1 [Example 174, N—((S)-(7-((R)-Cyclopropyl(4,4,4-trifluorobutanamido)methyl)imidazo[1,2-b]pyridazin-2-yl)(4,4-difluorocyclohexyl)methyl)-3-(2,2,2-trifluoroethoxy)benzamide] | 390
110 | O=C(CCC(F)(F)F)N[C@@H](c1cnn2cc([C@@H](NC(=O)c3cncc(N4CCCC4=O)c3)C3CCC(F)(F)CC3)nc2c1)C1CC1 [Example 176, N—((S)-(7-((R)-Cyclopropyl(4,4,4-trifluorobutanamido)methyl)imidazo[1,2-b]pyridazin-2-yl)(4,4-difluorocyclohexyl)methyl)-5-(2-oxopyrrolidin-1-yl)nicotinamide] | 420
53 | CCOc1cc(C(=O)N[C@H](c2cn3ncc([C@H](NC(=O)CCC(F)(F)F)C4CC4)cc3n2)C2CCC(F)(F)CC2)ccn1 [Example 177, N—((S)-(7-((R)-Cyclopropyl(4,4,4-trifluorobutanamido)methyl)imidazo[1,2-b]pyridazin-2-yl)(4,4-difluorocyclohexyl)methyl)-2-ethoxyisonicotinamide] | 440
